The values below come from patent US12473289B2, “Heterocyclic compounds as delta-5 desaturase inhibitors and methods of use” (Amgen Inc., priority 2019, dated 2025).

Molecules are shown by their SMILES. pIC50: −log10 of the molar value.

In assay [1] the target is Delta-5-Desaturase (D5D) (Homo sapiens (Human), UniProt O60427). Description: In vitro measurement of Delta-5-Desaturase inhibitory activity using DGLA-CoA and Arachidonyl-CoA mass spectrometric assays. Format: biochemical. The note with it: membrane preparations of D5D-overexpressing HEK293 6E cells; averaged over at least two independent runs. The method in brief: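 Membranes from D5D-overexpressing HEK293 6E cells (10 μg/mL final) in Tris pH 7.5 with MgCl2, octyl glucoside and TCEP were mixed 1:1 with substrate solution (0.01 mM DGLA, 0.25 mM NADH, 0.25 mM ATP, 0.05 mM CoA) for 1 h at ambient temperature. RapidFire SPE-MS/MS MRM; IC50 by 4-parameter fit, ≥2 runs.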

Assay [2] deals with Delta-5-Desaturase (D5D) (Mus musculus (Mouse), UniProt Q920L1). Description: In vivo measurement of Delta-5-Desaturase inhibitory activity (plasma AA/DGLA ratio in DIO mice). The note with it: single oral dose 30 mg/kg, read-out: Average % D5D Inhibition expressed as Plasma Endogenous AA/DGLA Ratio. Here is the method: In vivo Measurement of Delta-5-Desaturase Inhibitory Activity
Diet-induced obese (DIO; Jackson Laboratories strain #3800050) mice were used to screen for pharmacodynamic (PD) activity of test compounds. Generally, 14 to 24 week old DIO mice, were administered test compounds formulated in the vehicle of 2% hydroxypropyl methylcellulose (HPMC) and 1% Tween80. Animals were dosed on body weight by oral gavage with a single dose (30 mg/kg) for PD studies. Necropsy included plasma collection for PUFA analysis. 10 μl of plasma or standards diluted in surrogate matrix (65 g/l bovine serum albumin in Dulbecco's phosphate-buffered saline) were mixed with 10 μl of an internal standard (100 μM alpha-linolenic acid-d14 (ALA-d14, Cayman Chemical)) in a 96 well plate. 100 μl of 2N NAOH was added to the mixture for subsequent saponification at 65° C. for 1 hour. The mixture was then acidified with 50 μl of formic acid followed by two consecutive hexane extractions. Hexane (500 μl) was added and the mixture thoroughly mixed by vortexing, followed by centrifugation at 4,000 rpm for 15 min. The hexane phase was transferred to a new 1 ml 96 well plate and the remaining aqueous layer was extracted with hexane. The organic extracts were combined and the solvent was removed by placing the plate under nitrogen gas at 55° C. 250 μl of 90% methanol was added to the plate followed by vortexing for 2 minutes. 200 μl of the samples were transferred to a new 96 well polypropylene plate. The samples were analyzed on a LC-MS/MS for the following PUFAs: arachidonic acid (AA), dihomo-gamma-linolenic acid (DGLA), with ALA-d14 as the internal standard. Description of the LC-MS/MS method: 5 μl of sample was injected onto a Poroshell 120 EC-C18 3.0×50 mm, 1.9 μm id column. […] The PUFA peak areas were quantified by using the SCIEX Analyst software. […] The relative decrease of the AA/DGLA ratio of the test compound administered group relative to the vehicle administered group was calculated and used as an index for the degree of D5D inhibition.
The results presented in Table 27 were obtained using certain compounds described herein in the in vivo protocol described above.

Sequence of Delta-5-Desaturase (D5D) (Homo sapiens (Human), UniProt O60427) (O60427 whole entry, species assumed): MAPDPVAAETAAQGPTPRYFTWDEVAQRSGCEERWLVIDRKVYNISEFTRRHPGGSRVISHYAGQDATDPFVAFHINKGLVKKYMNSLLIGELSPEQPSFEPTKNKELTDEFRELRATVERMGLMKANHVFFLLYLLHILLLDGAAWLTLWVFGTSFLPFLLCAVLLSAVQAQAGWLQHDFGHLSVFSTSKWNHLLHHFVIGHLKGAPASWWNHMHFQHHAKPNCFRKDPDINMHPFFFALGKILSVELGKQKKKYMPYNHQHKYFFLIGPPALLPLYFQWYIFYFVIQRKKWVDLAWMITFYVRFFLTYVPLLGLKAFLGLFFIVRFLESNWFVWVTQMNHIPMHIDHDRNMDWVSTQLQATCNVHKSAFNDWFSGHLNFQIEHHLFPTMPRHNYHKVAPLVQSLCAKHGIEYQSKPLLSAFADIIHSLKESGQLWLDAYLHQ
Sequence of Delta-5-Desaturase (D5D) (Mus musculus (Mouse), UniProt Q920L1) (Q920L1 whole entry): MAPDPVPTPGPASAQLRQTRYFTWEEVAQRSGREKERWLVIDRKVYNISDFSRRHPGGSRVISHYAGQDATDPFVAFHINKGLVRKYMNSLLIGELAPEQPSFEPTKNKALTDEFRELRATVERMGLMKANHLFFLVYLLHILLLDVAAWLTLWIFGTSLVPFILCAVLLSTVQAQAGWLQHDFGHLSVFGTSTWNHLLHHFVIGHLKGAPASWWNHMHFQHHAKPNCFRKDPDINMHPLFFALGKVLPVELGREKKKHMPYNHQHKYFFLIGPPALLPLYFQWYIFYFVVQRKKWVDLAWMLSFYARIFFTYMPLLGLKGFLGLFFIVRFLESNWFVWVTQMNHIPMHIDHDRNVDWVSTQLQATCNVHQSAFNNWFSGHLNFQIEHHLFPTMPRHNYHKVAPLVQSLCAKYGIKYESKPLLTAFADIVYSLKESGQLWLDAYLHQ

`COc1cc2nc(C(F)(F)F)c(-c3cnn(CC(F)(F)C(F)(F)F)c3)c(=O)n2cc1F` [Example 33, 7-Fluoro-8-methoxy-3-[1-(2,2,3,3,3-pentafluoropropyl)-1H-pyrazol-4-yl]-2-(trifluoromethyl)-4H-pyrido[1,2-a]pyrimidin-4-one] showed a negative-log IC50 (pIC50) against Delta-5-Desaturase (D5D) [1] of 7.68. Further, at Delta-5-Desaturase (D5D) [2], the inhibition in vivo at 30 mg/kg is 71%.
In turn, `CCOc1nc2cc(OC)ccn2c(=O)c1-c1ccc(OCC(F)(F)F)cc1` [Example 1-81, 2-ethoxy-8-methoxy-3-(4-(2,2,2-trifluoroethoxy)phenyl)-4H-pyrido[1,2-a]pyrimidin-4-one] showed a pIC50 on Delta-5-Desaturase (D5D) [1] of 7.89. Also, the inhibition in vivo at 30 mg/kg at Delta-5-Desaturase (D5D) [2] was 44%.
For `[2H]C([2H])([2H])Oc1ccn2c(=O)c(-c3ccc(OCC(F)(F)F)cc3)c(C(F)(F)F)nc2n1` [Example 1-59, 8-(methyloxy-d3)-3-(4-(2,2,2-trifluoroethoxy)phenyl)-2-(trifluoromethyl)-4H-pyrimido[1,2-a]pyrimidin-4-one] the same measures were 7.84 and 73%.
At Delta-5-Desaturase (D5D) [1], `O=c1c(-c2ccc(OCC(F)(F)F)cc2)c(C(F)(F)F)nc2cc(CF)ccn12` [Example 13-4, 8-(fluoromethyl)-3-(4-(2,2,2-trifluoroethoxy)phenyl)-2-(trifluoromethyl)-4H-pyrido[1,2-a]pyrimidin-4-one] showed a pIC50 of 8.03. Besides, the inhibition in vivo at 30 mg/kg at Delta-5-Desaturase (D5D) [2] turned out to be 75%.
For `COc1ccn2c(=O)c(-c3ccc(OCC(F)(F)F)cc3)c(C(F)F)nc2c1` [Example 1-15, 2-(difluoromethyl)-8-methoxy-3-(4-(2,2,2-trifluoroethoxy)phenyl)-4H-pyrido[1,2-a]pyrimidin-4-one] the same measures were 7.91 and 70%.
For `CN(C)c1ccn2c(=O)c(-c3cnn(CC(F)(F)C(F)(F)F)c3)c(C(F)(F)F)nc2c1` [Example 1-22, 8-(dimethylamino)-3-(1-(2,2,3,3,3-pentafluoropropyl)-1H-pyrazol-4-yl)-2-(trifluoromethyl)-4H-pyrido[1,2-a]pyrimidin-4-one] the same measures were 6.92 and 59%.
As to `CCc1nc2cc(OC)ccn2c(=O)c1-c1ccc(OCC(F)(F)F)cc1` [Example 1-77, 2-ethyl-8-methoxy-3-(4-(2,2,2-trifluoroethoxy)phenyl)-4H-pyrido[1,2-a]pyrimidin-4-one], at Delta-5-Desaturase (D5D) [1], the pIC50 is 8.18. The inhibition in vivo at 30 mg/kg on Delta-5-Desaturase (D5D) [2] worked out at 75%.
In turn, `CCOc1ccn2c(=O)c(-c3ccc(OCC(F)(F)F)cc3)c(C(F)(F)F)nc2c1` [Example 11-3, 8-ethoxy-3-(4-(2,2,2-trifluoroethoxy)phenyl)-2-(trifluoromethyl)-4H-pyrido[1,2-a]pyrimidin-4-one] showed a negative logarithm of the IC50 (pIC50) against Delta-5-Desaturase (D5D) [1] of 7.56. Besides, the inhibition in vivo at 30 mg/kg on Delta-5-Desaturase (D5D) [2] worked out at 37%.
As to `COc1ccn2c(=O)c(-c3ccc(OCC(F)F)cc3)c(C(F)(F)F)nc2c1` [Example 1-10, 3-(4-(2,2-difluoroethoxy)phenyl)-8-methoxy-2-(trifluoromethyl)-4H-pyrido[1,2-a]pyrimidin-4-one], the pIC50 against Delta-5-Desaturase (D5D) [1] is 8.10. Further, at Delta-5-Desaturase (D5D) [2], the inhibition in vivo at 30 mg/kg came out at 75%.
For `O=c1c(-c2cnn(CC(F)(F)C(F)(F)F)c2)c(C(F)(F)F)nc2cc(CO)ccn12` [Example 13-1, 8-(Hydroxymethyl)-3-(1-(2,2,3,3,3-pentafluoropropyl)-1H-pyrazol-4-yl)-2-(trifluoromethyl)-4H-pyrido[1,2-a]pyrimidin-4-one], in that order: 7.62 and 52%.
`COc1ccn2c(=O)c(-c3ccc(OCC4CC4)cc3)c(C(F)(F)F)nc2c1` [Example 1-8, 3-(4-(cyclopropylmethoxy)phenyl)-8-methoxy-2-(trifluoromethyl)-4H-pyrido[1,2-a]pyrimidin-4-one] gave a pIC50 on Delta-5-Desaturase (D5D) [1] of 8.29. In addition, the inhibition in vivo at 30 mg/kg on Delta-5-Desaturase (D5D) [2] turned out to be 62%.
`COc1ccn2c(=O)c(-c3ccc(O[C@@H](C)C#N)cc3)c(C(F)(F)F)nc2c1` [Example 8-9, (2S)-2-(4-(8-methoxy-4-oxo-2-(trifluoromethyl)-4H-pyrido[1,2-a]pyrimidin-3-yl)phenoxy)propanenitrile] gave a pIC50 at Delta-5-Desaturase (D5D) [1] of 7.94. Further, at Delta-5-Desaturase (D5D) [2], the inhibition in vivo at 30 mg/kg is 79%.
`[2H]C([2H])([2H])Oc1ccn2c(=O)c(-c3cnn(CC(F)(F)C(F)(F)F)c3)c(C(F)(F)F)nc2n1` [Example 3-2, 8-(methyloxy-d3)-3-(1-(2,2,3,3,3-pentafluoropropyl)-1H-pyrazol-4-yl)-2-(trifluoromethyl)-4H-pyrimido[1,2-a]pyrimidin-4-one] showed a negative logarithm of the IC50 (pIC50) against Delta-5-Desaturase (D5D) [1] of 7.47. In addition, the inhibition in vivo at 30 mg/kg at Delta-5-Desaturase (D5D) [2] was 67%.
For `Nc1ccn2c(=O)c(-c3cnn(CC(F)(F)C(F)(F)F)c3)c(C(F)(F)F)nc2c1` [Example 6-1, 8-Amino-3-(1-(2,2,3,3,3-pentafluoropropyl)-1H-pyrazol-4-yl)-2-(trifluoromethyl)-4H-pyrido[1,2-a]pyrimidin-4-one] the same measures were 7.83 and 51%.
For `[2H]C([2H])([2H])Oc1ccn2c(=O)c(-c3cnn(CC(F)(F)C(F)(F)F)c3)c(C(F)(F)F)nc2c1` [Example 1-33, 8-(methyloxy-d3)-3-(1-(2,2,3,3,3-pentafluoropropyl)-1H-pyrazol-4-yl)-2-(trifluoromethyl)-4H-pyrido[1,2-a]pyrimidin-4-one], in that order: 7.76 and 84%.
Consider `O=c1ccn2c(=O)c(-c3ccc(OCC(F)(F)F)cc3)c(C(F)(F)F)[nH]c2c1` [Example 10-1, 3-(4-(2,2,2-Trifluoroethoxy)phenyl)-2-(trifluoromethyl)-4H-pyrido[1,2-a]pyrimidine-4,8(1H)-dione], for which the pIC50 at Delta-5-Desaturase (D5D) [1] is 7.36. Also, on Delta-5-Desaturase (D5D) [2], the inhibition in vivo at 30 mg/kg is 74%.
For `COc1ccn2c(=O)c(-c3cnn(CCC(F)(F)F)c3)c(C(F)(F)F)nc2c1` [Example 1-69, 8-methoxy-2-(trifluoromethyl)-3-[1-(3,3,3-trifluoropropyl)pyrazol-4-yl]pyrido[1,2-a]pyrimidin-4-one] the same measures were 7.82 and 71%.
For `O=c1ccn2c(=O)c(-c3cnn(CC(F)(F)C(F)(F)F)c3)c(C(F)(F)F)nc2[nH]1` [Example 10-4, 7-(1-(2,2,3,3,3-pentafluoropropyl)-1H-pyrazol-4-yl)-8-(trifluoromethyl)-2H-pyrimido[1,2-a]pyrimidine-2,6(1H)-dione], in that order: 7.16 and 52%.
At Delta-5-Desaturase (D5D) [1], `COc1ccn2c(=O)c(-c3ccc(OCC(F)(F)F)cc3)c(C3CC3)nc2c1` [Example 1-62, 2-cyclopropyl-8-methoxy-3-(4-(2,2,2-trifluoroethoxy)phenyl)-4H-pyrido[1,2-a]pyrimidin-4-one] gave a pIC50 of 7.96. For the same compound, the inhibition in vivo at 30 mg/kg at Delta-5-Desaturase (D5D) [2] amounted to 56%.
For `COc1ccn2c(=O)c(-c3ccc(OCC(F)F)cc3F)c(C(F)(F)F)nc2c1` [Example 1-41, 3-(4-(2,2-difluoroethoxy)-2-fluorophenyl)-8-methoxy-2-(trifluoromethyl)-4H-pyrido[1,2-a]pyrimidin-4-one] the same measures were 7.60 and 63%.
Consider `COc1ccn2c(=O)c(-c3ccc(OCC(F)(F)F)cc3)c(C(F)(F)F)nc2c1` [Example 1-44, 8-methoxy-3-(4-(2,2,2-trifluoroethoxy)phenyl)-2-(trifluoromethyl)-4H-pyrido[1,2-a]pyrimidin-4-one], for which, at Delta-5-Desaturase (D5D) [1], the pIC50 is 8.47. Moreover, the inhibition in vivo at 30 mg/kg on Delta-5-Desaturase (D5D) [2] was determined as 76%.
